Data published in patent US8617562B2, “FOXM1 peptides and immunogenic compositions containing them” (OncoTherapy Science, Inc., priority 2009, dated 2013).
“Also recorded” adds a separate entry of the source. Square brackets hold non-standard residues; d marks the D form. Ends that are not written are not given here.

Key:
[1] = system: COS7 cells transfected with FOXM1 and HLA-A*2402; assay: Specific CTL activity against target cells exogenously expressing FOXM1 and HLA-A*2402; assay type: cell-based, African green monkey
Source text: The cDNA encoding an open reading frame of target genes or HLA-A*2402 was amplified by PCR. The PCR-amplified products were cloned into pCAGGS vector. The plasmids were transfected into COST, which is the target genes and HLA-A24 negative cell line, using lipofectamine 2000 (Invitrogen) according to the manufacturer's recommended procedures. After 2 days from transfection, the transfected cells were harvested with versene (Invitrogen) and used as the target cells (5×10^4 cells/well) for CTL activity assay.
The established CTL lines and clones raised against these peptides were examined for their ability to recognize target cells that endogenously express FOXM1 and HLA-A*2402 gene. […] COS7 cells transfected with either full length of FOXM1 genes or HLA-A*2402 were prepared as controls.

[2] = system: peptide-pulsed TISI cells; assay: IFN-gamma ELISA assay of CTL lines stimulated with FOXM1 peptides; assay type: cell-based, human; conditions: target cells pulsed with corresponding peptide vs without peptide pulse
Experimental: CTLs were expanded in culture using the method similar to the one described by Riddell et al. (Walter E A et al., N Engl J Med 1995 Oct. 19, 333(16): 1038-44; Riddell S R et al., Nat Med 1996 February, 2(2): 216-23). A total of 5×10^4 CTLs were suspended in 25 ml of AIM-V/5% AS medium with 2 kinds of human B-lymphoblastoid cell lines, inactivated by Mitomycin C, in the presence of 40 ng/ml of anti-CD3 monoclonal antibody (Pharmingen). One day after initiating the cultures, 120 IU/ml of IL-2 were added to the cultures. The cultures were fed with fresh AIM-V/5% AS medium containing 30 IU/ml of IL-2 on days 5, 8 and 11 (Tanaka H et al., Br J Cancer 2001 Jan. 5, 84(1): 94-9; Umano Y et al., Br J Cancer 2001 Apr. 20, 84(8): 1052-7; Uchida N et al., Clin Cancer Res 2004 Dec. 15, 10(24): 8577-86; Watanabe T et al., Cancer Sci 2005 August, 96(8): 498-506; Suda T et al., Cancer Sci 2006 May, 97(5): 411-9).
(§1) Specifically, peptide-pulsed TISI (1×10^4 cells/well) was prepared as stimulator cells. Cultured cells in 48 wells were used as responder cells. IFN-gamma ELISPOT assay and IFN-gamma ELISA assay were performed under manufacture procedure.
(§2) CTL activity of those CTL lines was determined by IFN-gamma ELISA assay (FIGS. 2a-d). […] Furthermore, CTL clones were established by limiting dilution from the CTL lines, and IFN-gamma production from CTL clones against target cells pulsed peptide was determined by IFN-gamma ELISA assay.

[3] = system: peptide-pulsed TISI cells; assay: IFN-gamma ELISA assay of CTL clones established by limiting dilution; assay type: cell-based, human; conditions: peptide-pulsed target cells vs not pulsed
Experimental: The dilutions were made to have 0.3, 1, and 3 CTLs/well in 96 round-bottomed micro titer plate (Nalge Nunc International). CTLs were cultured with 1×10^4 cells/well of 2 kinds of human B-lymphoblastoid cell lines, 30 ng/ml of anti-CD3 antibody, and 125 U/ml of IL-2 in a total of […] of AIM-V Medium containing 5% AS. 50 micro-1/well of IL-2 were added to the medium 10 days later so to reach a final concentration of 125 U/ml IL-2. CTL activity was tested on the 14th day, and CTL clones were expanded using the same method as described above (Uchida N et al., Clin Cancer Res 2004 Dec. 15, 10(24): 8577-86; Suda T et al., Cancer Sci 2006 May, 97(5): 411-9; Watanabe T et al., Cancer Sci 2005 August, 96(8): 498-506).
as §1, §2

[4] = system: peptide-pulsed TISI cells; assay: IFN-gamma ELISPOT assay on CTLs induced with FOXM1 peptides; assay type: cell-based, human; conditions: target cells pulsed with the peptide vs not pulsed, day 21 after 3rd stimulation
Source text: Monocyte-derived dendritic cells (DCs) were used as antigen-presenting cells to induce cytotoxic T lymphocyte (CTL) responses against peptides presented on human leukocyte antigen (HLA). DCs were generated in vitro as described elsewhere (Nakahara S et al., Cancer Res 2003 Jul. 15, 63(14): 4112-8). Specifically, peripheral blood mononuclear cells (PBMCs) isolated from a normal volunteer (HLA-A*2402 positive) by Ficoll-Plaque (Pharmacia) solution were separated by adherence to a plastic tissue culture dish (Becton Dickinson) so as to enrich them as the monocyte fraction. The monocyte-enriched population was cultured in the presence of 1000 U/ml of granulocyte-macrophage colony-stimulating factor (R&D System) and 1000 U/ml of interleukin (IL)-4 (R&D System) in AIM-V Medium (Invitrogen) containing 2% heat-inactivated autologous serum (AS). After 7 days of culture, the cytokine-induced DCs were pulsed with 20 micro-g/ml of each of the synthesized peptides in the presence of 3 micro-g/ml of beta2-microglobulin for 3 hrs at 37 degrees C. in AIM-V Medium. The generated cells appeared to express DC-associated molecules, such as CD80, CD83, CD86 and HLA class II, on their cell surfaces (data not shown). These peptide-pulsed DCs were then inactivated by X-irradiation (20 Gy) and mixed at a 1:20 ratio with autologous CD8+ T cells, obtained by positive selection with CD8 Positive Isolation Kit (Dynal). These cultures were set up in 48-well plates (Corning); each well contained 1.5×10^4 peptide-pulsed DCs, 3×10^5 CD8+ T cells and 10 ng/ml of IL-7 (R&D System) in 0.5 ml of AIM-V/2% AS medium. Three days later, these cultures were supplemented with IL-2 (CHIRON) to a final concentration of 20 IU/ml. On days 7 and 14, the T cells were further stimulated with the autologous peptide-pulsed DCs. The DCs were prepared each time by the same way described above. CTLs were tested against peptide-pulsed TISI cells after the 3rd round of peptide stimulation on day 21 (Tanaka H et al., Br J Cancer 2001 Jan. 5, 84(1): 94-9; Umano Y et al., Br J Cancer 2001 Apr. 20, 84(8): 1052-7; Uchida N et al., Clin Cancer Res 2004 Dec. 15, 10(24): 8577-86; Watanabe T et al., Cancer Sci 2005 August, 96(8): 498-506; Suda T et al., Cancer Sci 2006 May, 97(5): 411-9).
as §1
CTLs for those peptides derived from FOXM1 were generated according to the protocols as described in “Materials and Methods”.

Row | Substance | IFN-gamma production of CTL lines compared with the control [2] | IFN-gamma production of peptide-induced CTLs compared with the control [4] | also measured
1 | IYTWIEDHF [SEQ ID NO: 2] | potent IFN-gamma production | potent IFN-gamma production | specific CTL activity against COS7 cells transfected with both FOXM1 and HLA-A*2402 ([1]; CTLs raised by the peptide as effector cells, listed as FOXM1-A24-9-262): potent CTL activity; also recorded: specific CTL activity; specific CTL activity against control COS7 cells expressing either HLA-A*2402 or FOXM1 ([1]; controls transfected with only one gene): no significant specific CTL activity; IFN-gamma production of CTL clones compared with the control ([3]; listed as FOXM1-A24-9-262): potent IFN-gamma production
2 | KFPAGIKII [SEQ ID NO: 8] | – | potent IFN-gamma production | –
3 | LTLDqVFKPL (LTLD[code q]VFKPL) [SEQ ID NO: 25] | potent IFN-gamma production | potent IFN-gamma production | –
4 | PYSYmAMIQF (PYSY[code m]AMIQF) [SEQ ID NO: 31] | potent IFN-gamma production | potent IFN-gamma production | IFN-gamma production of CTL clones compared with the control ([3]; listed as FOXM1-A24-10-238): potent IFN-gamma production
5 | RNMTIKTEL [SEQ ID NO: 7] | – | potent IFN-gamma production | –
6 | RYLTLDQVF [SEQ ID NO: 1] | – | – | IFN-gamma production of peptide-induced CTLs compared with the control ([4]; listed as FOXM1-A24-9-316): not shown specific IFN-gamma production; also recorded: typical negative data of CTL response
7 | SYMAmIQFAI (SYMA[code m]IQFAI) [SEQ ID NO: 16] | potent IFN-gamma production | potent IFN-gamma production | IFN-gamma production of CTL clones compared with the control ([3]; listed as FOXM1-A24-10-240): potent IFN-gamma production
8 | VLQPsVKVPL (VLQP[code s]VKVPL) [SEQ ID NO: 30] | – | potent IFN-gamma production | –
